Data: ChEMBL document CHEMBL4196150, “Structurally Diverse Highly Oxygenated Triterpenoids from the Roots of Ailanthus altissima and Their Cytotoxicity” (J Nat Prod, 2018)
pIC50: −log10 of the molar value.

How the values were obtained:
Format in all cases: functional, cell-based
HeLa = assay: Cytotoxicity against human HeLa cells after 72 hrs by MTT assay
786-0 = assay: Cytotoxicity against human 786-O cells after 72 hrs by MTT assay; conditions: 786-0, 72 h
HepG2 = assay: Cytotoxicity against human HepG2 cells after 72 hrs by MTT assay; conditions: HepG2, 72 h
A549 = assay: Cytotoxicity against human A549 cells after 72 hrs by MTT assay; conditions: A549, 72 h

## C[C@@H](C[C@@H](O)[C@H](O)C(C)(C)O)[C@@H]1CC[C@]2(C)C3=CC[C@H]4C(C)(C)C(=O)CC[C@]4(C)[C@H]3CC[C@@]12C
HeLa
  pIC50: < 4.40
786-0
  pIC50: < 4.40
HepG2
  pIC50: < 4.40
A549
  pIC50: < 4.40

## C=C(C)[C@H](O)[C@H]1C=C([C@@H]2CC=C3[C@]4(C)[C@H](O)C[C@H]5C(C)(C)OC(=O)C=C[C@]5(C)[C@H]4[C@H](OC(=O)/C(C)=C/C)C[C@]32C)C(=O)O1
HeLa
  pIC50: < 4.40
786-0
  pIC50: < 4.40
HepG2
  pIC50: < 4.40
A549
  pIC50: < 4.40

## CC(C)(O)[C@@H]1OC[C@H]([C@@H]2CC[C@]3(C)C4=CC[C@H]5C(C)(C)C(=O)CC[C@]5(C)[C@H]4CC[C@@]23C)C[C@H]1O
HeLa
  pIC50: < 4.40
786-0
  pIC50: < 4.40
HepG2
  pIC50: < 4.40
A549
  pIC50: < 4.40

## CC(C)(O)[C@@H]1OC[C@H]([C@@H]2CC[C@]3(C)C4=CC(=O)[C@H]5C(C)(C)C(=O)CC[C@]5(C)[C@H]4CC[C@@]23C)C[C@H]1O
HeLa
  pIC50: < 4.40
786-0
  pIC50: < 4.40
HepG2
  pIC50: < 4.40
A549
  pIC50: < 4.40

## C/C=C(\C)C(=O)O[C@@H]1C[C@]2(C)C(=CC[C@H]2C2=C[C@H]([C@H](O)C(C)(C)OC)OC2=O)[C@]2(C)[C@H](O)C[C@H]3C(C)(C)OC(=O)C=C[C@]3(C)[C@@H]12
HeLa
  pIC50: < 4.40
786-0
  pIC50: < 4.40
HepG2
  pIC50: < 4.40
A549
  pIC50: < 4.40

## CC1(C)C(=O)CC[C@]2(C)[C@H]3C[C@@H](O)[C@@H]4[C@@H]([C@]5(C)CCC(=O)O5)CC[C@@]4(C)[C@]3(C)CC[C@@H]12
HeLa
  pIC50: < 4.40
786-0
  pIC50: < 4.40
HepG2
  pIC50: < 4.40
A549
  pIC50: < 4.40

## C/C=C(\C)C(=O)O[C@@H]1C[C@]2(C)C(=CC[C@H]2[C@@H]2C[C@H]([C@H](O)C(C)(C)OC)O[C@H]2OC)[C@]2(C)[C@H](O)C[C@H]3C(C)(C)OC(=O)C=C[C@]3(C)[C@@H]12
HeLa
  pIC50: < 4.40
786-0
  pIC50: < 4.40
HepG2
  pIC50: < 4.40
A549
  pIC50: < 4.40

## COC(C)(C)[C@@H](O)[C@H]1C=C([C@@H]2CC(=O)[C@@H]3[C@@]2(C)CC[C@@H]2[C@@]4(C)C=CC(=O)OC(C)(C)[C@@H]4C[C@@H](OC(C)=O)[C@]23C)C(=O)O1
HeLa
  pIC50: < 4.40
786-0
  pIC50: < 4.40
HepG2
  pIC50: < 4.40
A549
  pIC50: < 4.40

## COC(=O)CC[C@]1(C)[C@H]2CC[C@@]3(C)[C@H]([C@@H](C)C[C@@H](O)[C@H](O)C(C)(C)O)CC[C@]3(C)C2=CC[C@H]1C(C)(C)O
HeLa
  pIC50: 4.42
786-0
  pIC50: 4.56
HepG2
  pIC50: 4.45
A549
  pIC50: 4.41

## C/C=C(\C)C(=O)O[C@@H]1C[C@]2(C)C(=CC[C@H]2C2=C[C@H]([C@H](O)C(C)(C)O)OC2=O)[C@]2(C)[C@H](O)C[C@H]3C(C)(C)OC(=O)C=C[C@]3(C)[C@@H]12
HeLa
  pIC50: < 4.40
786-0
  pIC50: < 4.40
HepG2
  pIC50: < 4.40
A549
  pIC50: < 4.40

## C/C=C(\C)C(=O)O[C@@H]1C[C@]2(C)C(=CC[C@H]2C2=CO[C@@H]([C@H](O)C(C)(C)O)C2)[C@]2(C)[C@H](O)C[C@H]3C(C)(C)OC(=O)C=C[C@]3(C)[C@@H]12
HeLa
  pIC50: 4.48
786-0
  pIC50: 4.46
HepG2
  pIC50: 4.41
A549
  pIC50: 4.40

## C/C=C(\C)C(=O)O[C@@H]1C[C@]2(C)C(=CC[C@H]2[C@@H]2C[C@H]([C@H](O)C(C)(C)OC)O[C@@H]2OC)[C@]2(C)[C@H](O)C[C@H]3C(C)(C)OC(=O)C=C[C@]3(C)[C@@H]12
HeLa
  pIC50: 4.42
786-0
  pIC50: 5.09
HepG2
  pIC50: 4.41
A549
  pIC50: 4.90

## CC1(C)C(=O)CC[C@]2(C)[C@H]3CC[C@@H]4[C@@H]([C@]5(C)CCC(=O)O5)CC[C@@]4(C)[C@]3(C)CC[C@@H]12 [CABRALELACTONE]
HeLa
  pIC50: < 4.40
786-0
  pIC50: < 4.40
HepG2
  pIC50: < 4.40
A549
  pIC50: < 4.40

## COc1cc2c(c(OC)c1OC)-c1ccc(OC)c(=O)cc1[C@@H](NC(C)=O)CC2 [COLCHICINE]
786-0
  pIC50: 7.66
HepG2
  pIC50: 7.11
A549
  pIC50: 7.37
